Experimental data published in ChEMBL document CHEMBL1123720 (J Med Chem, 1987).

Tests used:
Rattus norvegicus [1] = species: Rattus norvegicus; assay: Dose-dependent inhibition of calcium contraction in depolarized rat aortic strips; assay type: functional, organism-based; conditions: Aorta
Rattus norvegicus [2] = species: Rattus norvegicus; assay: Dose-dependent inhibition of calcium contraction in depolarized rat aortic strips.; assay type: functional, organism-based; conditions: Aorta

| SMILES | IC50 (Rattus norvegicus [1]) | IC50 (Rattus norvegicus [2]) |
| --- | --- | --- |
| CCOC(=O)C1=C(C)N=C(C)/C(=C(/O)OCC)C1c1cccc([N+](=O)[O-])c1SC (configuration not stated) | 5.8 nM |  |
| CCOC(=O)C1=C(C)N=C(C)/C(=C(/O)OCC)C1c1cc([N+](=O)[O-])ccc1SC (configuration not stated) | 130 nM |  |
| CCOC(=O)[C@H]1[C@H]2/C(=C(\O)OCC)C(C)=N[C@]1(C)Sc1cc([N+](=O)[O-])ccc12 |  | > 100000 nM |
| CCOC(=O)[C@H]1[C@H]2/C(=C(\O)OCC)C(C)=N[C@]1(C)Sc1c2cccc1[N+](=O)[O-] | 23000 nM |  |
| CCOC(=O)[C@H]1[C@H]2/C(=C(\O)OCC)C(C)=N[C@]1(C)Sc1ccc([N+](=O)[O-])cc12 | 3400 nM |  |
| CCOC(=O)[C@H]1[C@H]2/C(=C(\O)OCC)C(C)=N[C@]1(C)Sc1ccccc12 | 22000 nM |  |
| CCOC(=O)[C@@H]1[C@H]2/C(=C(\O)OCC)C(C)=N[C@]1(C)Sc1cc([N+](=O)[O-])ccc12 | 14000 nM |  |
| CCOC(=O)[C@@H]1[C@H]2/C(=C(\O)OCC)C(C)=N[C@]1(C)Sc1c2cccc1[N+](=O)[O-] | 3700 nM |  |
| CCOC(=O)[C@@H]1[C@H]2/C(=C(\O)OCC)C(C)=N[C@]1(C)Sc1ccc([N+](=O)[O-])cc12 | 31 nM |  |
| CCOC(=O)[C@@H]1[C@H]2/C(=C(\O)OCC)C(C)=N[C@]1(C)Sc1ccccc12 | 1200 nM |  |
| COC(=O)C1=C(C)NC(C)=C(C(=O)OC)C1c1ccccc1[N+](=O)[O-] [NIFEDIPINE] | 8.8 nM |  |
| CCOC(=O)C1=C(C)NC(C)=C(C(=O)OC)C1c1cccc([N+](=O)[O-])c1 (configuration not stated) [NITRENDIPINE] | 3.1 nM |  |
